Assay results as given in EP1143251B9, “METHOD AND BIOSENSOR FOR DETECTING ANTIGEN” (priority 1999, dated 2000).

Key:
[1] = test system: anti-dioxin monoclonal antibody; conditions: Catalog No. PDI-Dioxin-30, IgG1, host mouse; cited from earlier work
[2] = titer based on the toxicity of 2,3,7,8-TCDD (receptor binding, allylhydrocarbon hydroxylase inducing ability, toxic effect); cited from earlier work
[3] = test system: anti-dioxin monoclonal antibody; assay: surface plasmon resonance (BIAcore 2000) competitive method with HRP-2,3,7,8-TCDD on an antibody-fixed CM5 sensor chip; format: binding, mouse; conditions: average of the four cells
Text: An anti-dioxin monoclonal antibody was fixed to a sensor chip by the aminocoupling method using BIAcore (registered trademark) 2000.
As a sensor chip to which the antibody was not fixed, a sensor chip (commercial name CM5) available from BIAcore company was used. The metallic thin film 14 is composed of gold, and its thickness is 50 nm. The fixing body 18 is carboxymethyldextran having no crosslinked structure, and its thickness is 100 nm.
As the anti-dioxin monoclonal antibody, Catalog No. PDI-Dioxin-30 (Research Diagnostics, Inc., Pleasant Hill Road, Flanders, New Jersey, USA) was used. As the host, mouse was used. This anti-dioxin monoclonal antibody contains 10 mg IgG1 in 3.125 ml (3.2 mg/ml), 0.2M PBS, pH 7.2, and 0.05% sodium azide.
First, BIAcore's sensor chip CM5 was set in BIAcore (registered trademark) 2000. Then, a mixed solution of N-ethyl-N'-(3-dimethylaminopropyl)carbodiimide hydrochloride (EDC) and N-hydroxysuccinimide (NHS) was injected into BIAcore (registered trademark) 2000 to activate the sensor chip CM5.
The anti-dioxin monoclonal antibody (1,000 ppm) was centrifuged to replace the solvent. Finally, the antibody was dissolved in 100 µl of 10 mM acetic acid environment solution. The resulting solution in an amount of 50 µl was injected into BIAcore (registered trademark) 2000 at a rate of 5 µl/min to fix the anti-dioxin monoclonal antibody onto the surface of the sensor chip. […]
Using the sensor chip obtained in Example 1, dioxins were detected by the competitive method. […]
The diluted 2,3,7,8-TCDD solution of each concentration was mixed with 10 ppm HRP-2,3,7,8-TCDD in BIAcore. […] A change in the disappearance angle due to the binding of 2,3,7,8-TCDD itself to the antibody is too small to be measured by SPR. […]
Then, the mixture was injected (3 µl/min) into BIAcore 2000, and an SPR signal was measured to determined the disappearance angle. That is, polarized light with a wavelength of 760 nm was projected, and the intensity of reflected light was measured, with the angle of incidence of incident light being varied. […]

| Structure (SMILES) | TEF [2] | also measured |
| --- | --- | --- |
| Clc1cc2oc3cc(Cl)c(Cl)cc3c2cc1Cl [2,3,7,8-TCDF] | 0.1 | reactivity of the anti-dioxin monoclonal antibody [1]: 4.6% |
| Clc1cc2c(cc1Cl)Oc1c(cc(Cl)c(Cl)c1Cl)O2 [1,2,3,7,8-Penta CDD] | 0.5 |  |
| Clc1cc2oc3c(Cl)c(Cl)c(Cl)c(Cl)c3c2cc1Cl [1,2,3,4,7,8-Hexa CDF] | 0.1 |  |
| Clc1cc2c(c(Cl)c1Cl)Oc1c(Cl)c(Cl)c(Cl)c(Cl)c1O2 [1,2,3,4,6,7,8-Hepta CDD] | 0.01 |  |
| Clc1cc2oc3cc(Cl)c(Cl)c(Cl)c3c2c(Cl)c1Cl [1,2,3,7,8,9-Hexa CDF] | 0.1 |  |
| Clc1cc2oc3cc(Cl)c(Cl)c(Cl)c3c2cc1Cl [1,2,3,7,8-Penta CDF] | 0.05 |  |
| Clc1ccc2c(c1)Oc1cc(Cl)c(Cl)cc1O2 [2,3,7-TriCDD] |  | reactivity of the anti-dioxin monoclonal antibody [1]: <20% |
| Clc1cc(Cl)c2c(c1)oc1c(Cl)cc(Cl)cc12 [1,3,6,8-Tetra CDF] | 0 |  |
| Clc1cc2c(c(Cl)c1Cl)Oc1c(cc(Cl)c(Cl)c1Cl)O2 [1,2,3,7,8,9-Hexa CDD] | 0.1 |  |
| Clc1cc(Cl)c2c(c1)Oc1cc(Cl)cc(Cl)c1O2 [1,3,7,9-Tetra CDD] | 0 |  |
| Clc1ccc2c(c1)Oc1ccccc1O2 [2-CDD] |  | reactivity of the anti-dioxin monoclonal antibody [1]: 0.3% |
| Clc1cc(Cl)c2c(c1Cl)Oc1ccccc1O2 [1,2,4-TriCDD] |  | reactivity of the anti-dioxin monoclonal antibody [1]: <1.0% |
| Clc1cc2c(oc3c(Cl)c(Cl)c(Cl)c(Cl)c32)c(Cl)c1Cl [1,2,3,4,6,7,8-Hepta CDF] | 0.1 |  |
| Clc1cc2c(oc3c(Cl)c(Cl)c(Cl)cc32)c(Cl)c1Cl [2,3,4,6,7,8-Hexa CDF] | 0.1 |  |
| Clc1c(Cl)c(Cl)c2c(c1Cl)Oc1c(Cl)c(Cl)c(Cl)c(Cl)c1O2 [Octa CDD] | 0.001 |  |
| Clc1cc2c(cc1Cl)Oc1cc(Cl)c(Cl)cc1O2 [2,3,7,8-TCDD] | 1 | ΔRU Average ([3]; Dioxin concentration 3.8 ppb): 234.75 RU; ΔRU Average ([3]; Dioxin concentration 7.6ppb): 197.9 RU; ΔRU Average ([3]; Dioxin concentration 76 ppb): 135.9 RU; reactivity of the anti-dioxin monoclonal antibody [1]: 100% |
| Clc1cc2c(cc1Cl)Oc1ccccc1O2 [2,3-DCDD] |  | reactivity of the anti-dioxin monoclonal antibody [1]: 2.2% |
| Clc1cc2c(oc3cc(Cl)c(Cl)c(Cl)c32)c(Cl)c1Cl [1,2,3,6,7,8-Hexa CDF] | 0.1 |  |
| Clc1cc(Cl)c2c(c1)Oc1c(Cl)cc(Cl)cc1O2 [1,3,6,8-Tetra CDD] | 0 |  |
| Clc1cc2c(c(Cl)c1Cl)Oc1cc(Cl)c(Cl)c(Cl)c1O2 [1,2,3,6,7,8-Hexa CDD] | 0.1 |  |
| Clc1c(Cl)c(Cl)c2c(oc3c(Cl)c(Cl)c(Cl)c(Cl)c32)c1Cl [Octa CDF] | 0.001 |  |
| Clc1cc2c(cc1Cl)Oc1c(Cl)c(Cl)c(Cl)c(Cl)c1O2 [1,2,3,4,7,8-Hexa CDD] | 0.1 |  |
| Clc1cc2oc3c(Cl)c(Cl)c(Cl)c(Cl)c3c2c(Cl)c1Cl [1,2,3,4,7,8,9-Hepta CDF] | 0.1 |  |
